Data on two molecules can be found in patent publication US10149837B2, “Selective agonists of beta-adrenergic type 3 receptors (BAR3) and use thereof” (UNIVERSITA' DEGLI STUDI DI BARI, priority 2015, dated 2018).

For assay [1], the system named is conditional knockout mice for AVPR2. The experiment in a line: diuresis and urine osmolality in the animal model of X-linked nephrogenic diabetes insipidus (metabolic cage). Type of assay: in vivo. How it is done:
At one hour from the injection of the compound, the diuresis of the treated mice is set to zero compared to control animals.
In the mouse affected by nephrogenic diabetes insipidus (X-NDI) for conditional deletion of the AVPR2 receptor, the compound BRL37344 has been administered by intraperitoneal injection at the dosage of 0.6 mg/Kg. Five animals received the compound whereas as many control animals received the vehicle only (physiological saline). The cumulative diuresis has been measured in metabolic cage in both animal groups.
The data obtained are in line with a transient effect induced by the stimulation of the renal BAR3 receptors by BRL37344.

The subject of assay [2] is AQP2. The experiment in a line: kidney slices: AQP2 localisation by confocal laser scanning after stimulation. The class given is cell-based, mice. As to conditions: slices of vital tissue from murine C57BL-6 kidneys, 45 minutes of stimulation. How it is done: By the technique of “kidney slices”, thin slices of vital tissue from murine C57BL-6 kidneys have been obtained which, maintained in culture medium and appropriate atmosphere, have been stimulated with agonists able to increase the intracellular levels of cAMP (forskolin and vasopressin) and with the agonist of murine BRL37344 BAR3. After 45 minutes of stimulation the tissues have been fixed, marked for AQP2 and observed by confocal laser scanning.

Setting [3] is: X-NDI animal model, summary statement, no time point.
Where [4] appears, read: X-NDI mice, 0.6 mg/Kg intraperitoneal, second hour after injection, vs control group, acetic acid sodium hydrate, 0.6 mg/kg.

“Also recorded” adds a separate entry of the source.

Regarding `C[C@H](Cc1ccc(OCC(=O)O)cc1)NC[C@H](O)c1cccc(Cl)c1.O.[Na]` (relative stereo) [BRL37344, (±)-(R*,R*)-[4-[2-[[2-(3-Chlorophenyl)-2-hydroxyethyl]amino]propyl]phenoxy] acetic acid sodium hydrate], in assay [1] (setting [3]), the diuresis entry is listed as “drastic reduction of diuresis”. For the same molecule, the urine osmolality result in assay [1] (setting [3]) is listed as “increase of urine osmolality”; in assay [1] (setting [4]), “significantly increased”; in assay [1] (X-NDI mice, 0.6 mg/Kg intraperitoneal, third hour after injection, vs control group, acetic acid sodium hydrate, 0.6 mg/kg), “tendency to increase although not statistically significant; also recorded: on average higher although not statistically different from that of the control group”. The cumulative diuresis result in assay [1] (X-NDI mice, 0.6 mg/Kg intraperitoneal, end of third hour after injection, vs control group, acetic acid sodium hydrate, 0.6 mg/kg) was “still drastically reduced; also recorded: still remained statistically lower than that of the control group”; in assay [1] (X-NDI mice, 0.6 mg/Kg intraperitoneal, first hour after injection, vs control group), “set to zero”; in assay [1] (setting [4]), “drastically reduced; also recorded: statistically reduced compared to the control group”. In assay [2] (acetic acid sodium hydrate), the “apical membrane expression (repositioning) of AQP2” value is “able to increase the apical levels of AQP2 with an effect comparable to that produced by vasopressin; also recorded: determines a repositioning of the marking of AQP2 on the apical membrane”.
Turning to `NC(=O)CC[C@@H]1NC(=O)[C@H](Cc2ccccc2)NC(=O)[C@H](Cc2ccc(O)cc2)NC(=O)[C@@H](N)CSSC[C@@H](C(=O)N2CCC[C@H]2C(=O)N[C@@H](CCCN=C(N)N)C(=O)NCC(N)=O)NC(=O)[C@H](CC(N)=O)NC1=O` [Vasopressin, vasopressin], the “apical membrane expression (repositioning) of AQP2” value in assay [2] is “translocates AQP2 on the apical membrane of the tubular cells”.
